In brackets after ≈: the same amount, converted by molar mass.
Key:
[1] = system: MICROCOCCUS LUTEUS ATCC 9341; test: In vitro antibacterial activity, agar dilution MIC (BHIA); format: cell-based; conditions: BHI agar
[2] = system: MICROCOCCUS LUTEUS ATCC 4698; test: as above; format: cell-based; conditions: BHI agar
[3] = system: ENTEROCOCCUS FAECIUM ATCC 8043; test: as above; format: cell-based; conditions: BHI agar
[4] = system: STREPTOCOCCUS BOVIS A5169; test: as above; format: cell-based; conditions: BHI agar
[5] = system: ESCHERICHIA COLI DC-2; test: as above; format: cell-based; conditions: BHI agar
From the text: (§1) The MIC results are in μg/ml.

[6] = system: ESCHERICHIA COLI H560; test: as above; format: cell-based; conditions: BHI agar
From the text: as §1

[7] = system: ESCHERICHIA COLI SS; test: as above; format: cell-based; conditions: BHI agar
From the text: as §1

[8] = system: ESCHERICHIA COLI KNK 437; test: as above; format: cell-based; conditions: BHI agar
[9] = system: ENTEROBACTER AEROGENES ATCC 13048; test: as above; format: cell-based; conditions: BHI agar
[10] = system: PROVIDENCIA STUARTII CMX 640; test: as above; format: cell-based; conditions: BHI agar
[11] = system: PSEUDOMONAS AERUGINOSA BMH10; test: as above; format: cell-based; conditions: BHI agar
[12] = system: PSEUDOMONAS AERUGINOSA A5007; test: as above; format: cell-based; conditions: BHI agar
[13] = system: PSEUDOMONAS AERUGINOSA K799/WT; test: as above; format: cell-based; conditions: BHI agar
[14] = system: PSEUDOMONAS AERUGINOSA K799/61; test: as above; format: cell-based; conditions: BHI agar
[15] = system: PSEUDOMONAS CEPACIA 2961; test: as above; format: cell-based; conditions: BHI agar
[16] = system: E. Coli Juhl; test: Acute mouse protection test; format: in vivo; conditions: mice infected intraperitoneally with E. Coli JUHL, dosed at 1 and 5 hours post-infection
[17] = system: P. Aeruginosa A5007; test: Acute mouse protection test; format: in vivo; conditions: mice infected intraperitoneally with P. Aeruginosa A5007, dosed at 1 and 5 hours post-infection
[18] = system: Stap. Aureus NCTC 10649; test: Acute mouse protection test; format: in vivo; conditions: mice infected intraperitoneally with Stap. Aureus NCTC 10649, dosed at 1 and 5 hours post-infection
[19] = system: STREPTOCOCCUS AGALACTIAE CMX 508; test: In vitro antibacterial activity, agar dilution MIC (BHIA); format: cell-based; conditions: BHI agar
[20] = system: STREPTOCOCCUS PYOGENES EES61; test: as above; format: cell-based; conditions: BHI agar
[21] = system: STREPTOCOCCUS PYOGENES 930 CONST; test: as above; format: cell-based; conditions: BHI agar
[22] = system: STREPTOCOCCUS PYOGENES 2548 INDUC; test: as above; format: cell-based; conditions: BHI agar
[23] = system: ESCHERICHIA COLI JUHL; test: as above; format: cell-based; conditions: BHI agar
[24] = system: KLEBSIELLA PNEUMONIAE ATCC 8045; test: as above; format: cell-based; conditions: BHI agar
[25] = system: ACINETOBACTER SP CMX 669; test: as above; format: cell-based; conditions: BHI agar
[26] = Aqueous solubility (water and pH 7.4); conditions: the sign > refers to an approximate value, solubility may be within 10% higher
[27] = Conversion of prodrug to parent drug in whole blood at 37° C.; format: in vitro ADME; conditions: conversion to parent drug in dog whole blood at 37° C.; seconds; two values = two prodrug peaks
Procedure: An aqueous solution of prodruq (Z) is spiked into fresh whole blood containing sodium heparin as an anticoagulant. The sample is mixed gently by inversion and placed in a 37° waterbath. At selected time intervals an 0.5 ml aliquot of blood is removed and placed in a chilled 1.5 ml centrifuge tube (ice temperature). Samples are centrifuges at 13,000 rpm for two minutes to separate plasma. An 0.2 ml aliquot of the plasma sample is combined with 0.2 ml internal standard (7-(4-amino-2-methyl-1-pyrrolidinyl)-1-(2,4-difluorophenyl)-6-fluoro-1,4-d ihydro-4-oxo-1,8-naphthyridine-3-carboxylic acid in 0.2 M sodium phosphate pH 7.2 buffer) and 6 mls CH2 Cl2 :EtoH (9:1 by volume). Samples are capped and shaken gently for 10 minutes. Samples are centrifuqes at 2500 rpm for 10 minutes (4° C.). The aqueous layer is aspirated to waste and the organic layer is transferred to a conical centrifuge tube and evaporated to dryness with a stream of dry air and low heat […]. Samples are reconstituted with 0.2 ml mobile phase followed by vortexing. Samples are centrifuqes at 2500 rpm for 10 minutes to separate precipitate. The supernatant is transferred to a WISP vial with plastic insert for HPLC analysis.

[28] = Plasma level in dog after oral dose; format: in vivo; conditions: 10 mg equivalent/kg oral dose, HPLC
From the text: The plasma samples were collected and determined by the HPLC analysis.

[29] = system: Stap. Aureus CMX 553; test: Second in vitro test, MIC in Brain Heart Infusion Broth (BHIB)
Procedure: (§2) The in vitro antibacterial activity of the test compounds was determined by conventional agar dilution procedures. The organisms were grown overnight in brain-heart infusion (BHI) broth (Difco 0037-01-6) at 36° C. Twofold dilutions of the stock solution (2000 mcg/mL) of the test compound were made in BHI agar to obtain a test concentration ranging from 200 to 0.005 mcg/mL. The plate was inoculated with approximately 10^4 organisms. It was then incubated at 36° C. for 18 h.

[30] = system: Strep pyogenes EES 61; test: as above
Procedure: as §2

[31] = system: E. Coli Juhl; test: as above
Procedure: as §2

[32] = system: Ps. Aeruginosa A5007; test: as above
Procedure: as §2

| Compound | MIC [1] [µg/mL] | MIC [2] | MIC ([3]; ENTEROCOCCUS FAECIUM ATCC 8043) | MIC ([4]; STREPTOCOCCUS BOVIS A5169) [µg/mL] | MIC [5] [µg/mL] | MIC [6] | MIC [7] | MIC [8] [µg/mL] | MIC [9] [µg/mL] | MIC [10] [µg/mL] | MIC [11] [µg/mL] | MIC [12] [µg/mL] | MIC [13] [µg/mL] | MIC [14] | MIC [15] [µg/mL] | Oral (ED50) [16] [mg/kg/day] | Oral (ED50) [17] [mg/kg/day] | Oral (ED50) [18] [mg/kg/day] | MIC [21] | Water Solubility [26] [mg/mL] | further results |
| --- | --- | --- | --- | --- | --- | --- | --- | --- | --- | --- | --- | --- | --- | --- | --- | --- | --- | --- | --- | --- | --- |
| CC(N)C(=O)NC(C)C(=O)NC1CCN(c2nc3c(cc2F)c(=O)c(C(=O)O)cn3-c2ccc(F)cc2F)C1 (stereo not drawn) [Example 15] | > 100 | 100 µg/mL (≈ 183 µM) | 50 µg/mL (≈ 91.5 µM) | 50 (≈ 91.5 µM) | 100 (≈ 183 µM) | 6.2 µg/mL (≈ 11.3 µM) | .39 µg/mL (≈ 0.714 µM) | 50 (≈ 91.5 µM) | 25 (≈ 45.7 µM) | 100 (≈ 183 µM) | 100 (≈ 183 µM) | 100 (≈ 183 µM) | 50 (≈ 91.5 µM) | 3.1 µg/mL (≈ 5.67 µM) | 50 (≈ 91.5 µM) | 2.0 | 9.1 | 1.3 | – | – | – |
| Cl.NCC(=O)N[C@@H](Cc1ccccc1)C(=O)NC1CCN(c2nc3c(cc2F)c(=O)c(C(=O)O)cn3-c2ccc(F)cc2F)C1 (stereo partly drawn) [Example 1b, 7-[(3-Gly-L-Phe-amino)-1-pyrrolidinyl]-1-(2,4-difluorophenyl)-6-fluoro-1,4-dihydro-4-oxo-1,8-naphthyridine-3-carboxyli c acid hydrochloride] | 6.25 | .78 µg/mL | – | – | 100 | 1.56 µg/mL | .2 µg/mL | 25 | 12.5 | 100 | 25 | 25 | 25 | 12.5 µg/mL | 50 | 1.8 | 27.3 | 0.7 | .78 µg/mL | – | MIC ([3]; EN[…] ATCC 8043): 1.56 µg/mL; MIC ([4]; STR[…] A5169): 1.56 µg/mL; MIC ([19]; STR[…] 508): 1.56 µg/mL; MIC ([20]; STR[…] EES61): 1.56 µg/mL; MIC [22]: .78 µg/mL; MIC [23]: 3.12 µg/mL; MIC [24]: 12.5 µg/mL; MIC [25]: 12.5 µg/mL |
| CCC[C@H](NC(=O)[C@H](C)N)C(=O)NC1CCN(c2nc3c(cc2F)c(=O)c(C(=O)O)cn3-c2ccc(F)cc2F)C1 (stereo partly drawn) [Example 55b, 7-(3-Ala-Nval-amino-1-pyrrolidinyl)-6-fluoro-1-(2,4-difluorophenyl)-1,4-di hydro-4-oxo-1,8-naphthyridine-3-carboxylic acid] | – | – | – | – | – | – | – | – | – | – | – | – | – | – | – | – | – | – | – | 26 | – |
| NC1CCN(c2nc3c(cc2F)c(=O)c(C(=O)O)cn3-c2ccc(F)cc2)C1 (stereo not drawn) [compound A, 7-(3-amino-1-pyrrolidinyl)-6-fluoro-1-(4-fluorophenyl)-1,4-dihydro-4-oxo-1 ,8-naphthyridine-3-carboxylic acid, reference compound] | – | – | – | – | – | – | – | – | – | – | – | – | – | – | – | – | – | – | – | 1.4 | – |
| CCC[C@H](NC(=O)[C@@H](N)CCC)C(=O)NC1CCN(c2nc3c(cc2F)c(=O)c(C(=O)O)cn3-c2ccc(F)cc2F)C1.Cl (stereo partly drawn) [Example 3b, 7-(3-L-Norvaline-L-Norvalineamino-1-pyrrolidinyl)-1-(2,4-difluorophenyl)-6-fluoro-1,4-dihydro-4-oxo-1,8-naphthyridine-3-carboxylic acid hydrochloride] | – | – | – | – | – | – | – | – | – | – | – | – | – | – | – | 4.0 | 9.1 | 1.8 | – | > 40 | Half Life Dog [27]: 1.44 min; C max (range) ([28]; maximum plasma concentration): 1.9 (1.5-2.2) mcg/ml; AUC (0-32 h) ([28]; plasma, 0-32 h): 10.2 µg·h/mg; MIC [29]: 12.5 µg/mL; MIC [30]: 12.5 µg/mL; MIC [31]: 25 µg/mL; MIC [32]: 50 µg/mL |
| 7-[3-Norvaline-amino-1-pyrrolidinyl]-1-(2,4-difluoro-phenyl)- 6-fluoro-1,4-dihydro-4-oxo-1,8-naphthyridine-3-carboxylic acid hydrochloride [Example 2b] | 25 | 25 µg/mL | .78 µg/mL | 1.56 | 12.5 | .78 µg/mL | .02 µg/mL | 6.2 | 3.1 | 50 | 6.2 | 12.5 | 6.2 | .39 µg/mL | 50 | – | – | – | .78 µg/mL | – | MIC ([19]; STREPTOCOCCUS AGALACTIAE CMX 508): 1.56 µg/mL; MIC ([20]; STREPTOCOCCUS PYOGENES EES61): 1.56 µg/mL; MIC [22]: .39 µg/mL; MIC [23]: .78 µg/mL; MIC [24]: .39 µg/mL; MIC [25]: 3.1 µg/mL |

Reference: patent US5057523A, “Dipeptide quinolone derivatives” (Abbott Laboratories, priority 1989, dated 1991)
